According to patent US5409946A, “Isoxazole, isothiazole and pyrazole compounds that enhance cognitive function” (Abbott Laboratories, priority 1993, dated 1995):
Where a name gives a salt, the structure may show the parent alone. Read-outs that look alike come from different tables or passages of the source.

Target: neuronal nicotinic receptors
Assay: Displacement of [3H]-MCC or [3H]-cytisine from neuronal nicotinic receptors, whole rat brain membranes
Assay type: binding
Conditions: Table 1, read-out: Nicotinic Receptor Ki
Description: Binding of [^3 H]-methylcarbamylcholine ([^3 H]-MCC) or [^3 H]-cytisine ([^3 H]-CYT) to nicotinic receptors was accomplished using crude synaptic membrane preparations from whole rat brain (Snyder and Enna, Brain Research, 1975, 100:81). Washed membranes were stored at -80° C. prior to use. Frozen aliquots were slowly thawed and resuspended in 20 volumes of buffer (containing: 120 mM NaCl, 5 mM KCl, 2 mM MgCl2, 2 mM CaCl2 and 50 mM Tris-Cl, pH 7.4 @4° C). After centrifuging at 20,000 X g for 15 minutes, the pellets were resuspended in 30 volumes of buffer. Homogenate (containing 125-150 μg protein) was added to triplicate tubes containing concentrations of test compound and [^3 H]-MCC (3 nM) in a final volume of 500 μL. Samples were incubated for 60 minutes at 4° C., then rapidly filtered through Whatman GF/B filters presoaked in 0.5% polyethylimine using 3×4 mL of ice-cold buffer. Alternately, homogenate and test compound were incubated for 75 min with [^3 H]-CYT (1.3 nM), then rapidly filtered, as described above. The filters are counted in 4 mL of Ecolume® (ICN). […] IC50 values were determined with the ALLFIT nonlinear least squares curve-fitting program and IC50 values were converted to Ki values using the Cheng and Prusoff correction (Ki =IC50 /(1+[ligand]/Kd of ligand)). Alternately, data were expressed as a percentage of the total specific binding.

Compound | Ki [nM] | other results
Cc1cc([C@H]2C[C@H](O)CN2C)on1 (relative stereo) [Example 21, 3-Methyl-5-(trans-4-hydroxy-1-methyl-2-pyrrolidinyl)-isoxazole oxalate salt] | 114 | –
Cc1cc([C@H]2C[C@H](CF)CN2C)on1 (relative stereo) [Example 22, 3-Methyl-5-(trans-4-fluoromethyl-1-methyl-2-pyrrolidinyl)-isoxazole hydrochloride] | 183 | –
Cc1cc([C@H]2C[C@H](C)CN2C)on1 (relative stereo) [Example 24, 3-Methyl-5-(trans-1,4-dimethyl-2-pyrrolidinyl)-isoxazole oxalate salt] | 24 | –
Cc1cc([C@H]2CC[C@H](C)N2C)on1 (relative stereo) [Example 25, 3-Methyl-5-(trans-1,5-dimethyl-2-pyrrolidinyl)-isoxazole oxalate salt] | 289 | –
Cc1cc([C@@H]2CCCN2)on1 [Example 1, 3-Methyl-5-(2(S)-pyrrolidinyl)-isoxazole oxalate salt] | 289 | –
CCc1cc([C@@H]2CCCN2)on1 [Example 3, 3-Ethyl-5-(2(S)-pyrrolidinyl)-isoxazole oxalate salt] | 621 | –
CN1CCC[C@H]1c1cc(Cc2ccccc2)no1 [Example 7, 3-Benzyl-5-(1-methyl-2(S)-pyrrolidinyl)-isoxazole oxalate salt] | – | Ki (oxalate salt): 18 nM
CN1CCC[C@H]1c1cc(Cc2ccccc2)no1 [Example 8, 3-Benzyl-5-(1-methyl-2(S)-pyrrolidinyl)-isoxazole hydrochloride salt] | – | Ki (hydrochloride salt): 13 nM
CCCc1cc([C@@H]2CCCN2C)on1 [Example 9, 5-(1-Methyl-2(S)-pyrrolidinyl)-3-propyl-isoxazole hyrochloride salt] | 14 | –
CCCCc1cc([C@@H]2CCCN2C)on1 [Example 10, 3-n-Butyl-5-(1-methyl-2(S)-pyrrolidinyl)-isoxazole hydrochloride salt] | 24 | –
Cc1cc([C@@H]2CCCN2C)on1 [Example 11, 3-Methyl-5-(1-methyl-2(S)-pyrrolidinyl)-isoxazole hydrochloride salt] | – | Ki (hydrochloride salt): 3 nM
CCc1cc([C@@H]2CCCN2C)on1 [Example 12, 3-Ethyl-5-(1-methyl-2(S)-pyrrolidinyl)-isoxazole hydrochloride salt] | – | Ki (hydrochloride salt): 7 nM
CCN1CCC[C@H]1c1cc(C)no1 [Example 13, 5-(1-Ethyl-2(S)-pyrrolidinyl)-3-methyl-isoxazole hydrochloride salt] | 34 | –
Cc1cc([C@H]2CCCN2)on1 [Example 14] | 10 | –
Cc1cc([C@H]2CCCN2)on1 [Example 15, 3-Methyl-5-(2(R)-pyrrolidinyl)-isoxazole benzoate salt] | 7 | –
Cc1cc([C@H]2CCCN2C)on1 [Example 16, 3-Methyl-5-(1-methyl-2(R)-pyrrolidinyl)-isoxazole hydrochloride salt] | 55 | –
CCc1cc([C@H]2CCCN2)on1 [Example 17, 3-Ethyl-5-(2(R)-pyrrolidinyl)-isoxazole oxalate salt] | 12 | –
Cc1cc([C@H]2CCCN2)sn1 [Example 19, 3-methyl-5-((2(R)-pyrrolidinyl)-isothiazole hydrochloride] | 228 | –
COCc1cc([C@@H]2CCCN2C)on1 [Example 20, 3-Methoxymethyl-5-(1-methyl-2(S)-pyrrolidinyl)-isoxazole fumarate salt] | 22 | –
CN1CCC[C@H]1c1cc(Br)no1 [Example 27, 3-Bromo-5-(1-methyl-2(S)-pyrrolidinyl)-isoxazole hydrochloride] | 7.7 | –
CCN1C[C@H](C)C[C@H]1c1cc(C)no1 [Example 28c, trans-5-(1-ethyl-4-methyl-2(S)-pyrrolidinyl)-3-methyl-isoxazole hydrochloride] | 21 | –
Cc1cc([C@@H]2C[C@@H](C)CN2C)on1 [Example 28d, trans-5-(1-methyl-4-methyl-2(S)-pyrrolidinyl)-3-methyl-isoxazole hydrochloride] | 17.1 | –
